Legend:
Format in all cases: functional
Staphylococcus aureus [1] = assay: Synergistic antibacterial activity against methicillin resistant Staphylococcus aureus assessed as fractional inhibitory concentration index in presence of ampicillin by checkerboard assay
Staphylococcus aureus [2] = assay: Synergistic antibacterial activity against methicillin resistant Staphylococcus aureus assessed as fractional inhibitory concentration index in presence of cephradine by checkerboard assay
Staphylococcus aureus [3] = assay: Synergistic antimicrobial activity against methicillin-resistant Staphylococcus aureus assessed as fractional inhibitory concentration index in presence of fosfomycin by checkerboard assay
Staphylococcus aureus [4] = assay: Synergistic antimicrobial activity against methicillin-resistant Staphylococcus aureus assessed as fractional inhibitory concentration index in presence of chloramphenicol by checkerboard assay
Staphylococcus aureus [5] = assay: Synergistic antimicrobial activity against methicillin-resistant Staphylococcus aureus assessed as fractional inhibitory concentration index in presence of minocycline by checkerboard assay
Staphylococcus aureus [6] = assay: Synergistic antimicrobial activity against methicillin-resistant Staphylococcus aureus assessed as fractional inhibitory concentration index in presence of gentamicin by checkerboard assay
Staphylococcus aureus [7] = assay: Synergistic antimicrobial activity against methicillin-resistant Staphylococcus aureus assessed as fractional inhibitory concentration index in presence of levofloxacin by checkerboard assay
Staphylococcus aureus [8] = assay: Synergistic antimicrobial activity against methicillin-resistant Staphylococcus aureus assessed as fractional inhibitory concentration index in presence of vancomycin by checkerboard assay
Staphylococcus aureus [9] = assay: Synergistic antimicrobial activity against methicillin-resistant Staphylococcus aureus assessed as fractional inhibitory concentration index in presence of chloramphenicol incubated for 24 hrs by checkerboard assay
Staphylococcus aureus [10] = assay: Synergistic antimicrobial activity against methicillin-resistant Staphylococcus aureus assessed as fractional inhibitory concentration index in presence of amoxicillin incubated for 24 hrs by checkerboard assay
Staphylococcus aureus [11] = assay: Synergistic antimicrobial activity against methicillin-resistant Staphylococcus aureus assessed as fractional inhibitory concentration index in presence of ampicillin incubated for 24 hrs by checkerboard assay
Staphylococcus aureus [12] = assay: Synergistic antimicrobial activity against methicillin-resistant Staphylococcus aureus assessed as fractional inhibitory concentration index in presence of penicillin G incubated for 24 hrs by checkerboard assay
Staphylococcus aureus [13] = assay: Synergistic antimicrobial activity against methicillin-resistant Staphylococcus aureus assessed as fractional inhibitory concentration index in presence of Ceftriaxone incubated for 24 hrs by checkerboard assay
Staphylococcus aureus [14] = assay: Synergistic antimicrobial activity against methicillin-resistant Staphylococcus aureus assessed as fractional inhibitory concentration index in presence of cefixime incubated for 24 hrs by checkerboard assay
Staphylococcus aureus [15] = assay: Synergistic antimicrobial activity against methicillin-resistant Staphylococcus aureus assessed as fractional inhibitory concentration index in presence of ciprofloxacin incubated for 24 hrs by checkerboard assay
Staphylococcus aureus [16] = assay: Synergistic antimicrobial activity against methicillin resistant Staphylococcus aureus 43300 assessed as fractional inhibitory concentration index incubated for 24 hrs in presence of Gentamicin by checkerboard assay
Staphylococcus aureus [17] = assay: Synergistic antimicrobial activity against methicillin-resistant Staphylococcus aureus assessed as fractional inhibitory concentration index incubated for 24 hrs in presence of ampicillin by checkerboard assay
Staphylococcus aureus [18] = assay: Synergistic antimicrobial activity against methicillin resistant Staphylococcus aureus assessed as fractional inhibitory concentration index incubated for 24 hrs in presence of Norfloxacin by checkerboard assay
Staphylococcus aureus [19] = assay: Synergistic antimicrobial activity against methicillin resistant Staphylococcus aureus assessed as fractional inhibitory concentration index incubated for 24 hrs in presence of rifampicin by checkerboard assay
Staphylococcus aureus [20] = assay: Synergistic antimicrobial activity against methicillin-resistant Staphylococcus aureus CCARM 3089 assessed as fractional inhibitory concentration index in presence of pencillin incubated for 24 hrs by checkerboard assay
Staphylococcus aureus [21] = assay: Synergistic antimicrobial activity against methicillin-resistant Staphylococcus aureus assessed as fractional inhibitory concentration index in presence of minocycline incubated for 24 hrs by checkerboard assay
Staphylococcus aureus [22] = assay: Synergistic antimicrobial activity against methicillin-resistant Staphylococcus aureus assessed as fractional inhibitory concentration index in presence of gentamicin incubated for 24 hrs by checkerboard assay
Staphylococcus aureus [23] = assay: Synergistic antibacterial activity against methicillin resistant Staphylococcus aureus assessed as fractional inhibitory concentration index in presence of minocycline by checkerboard assay
Staphylococcus aureus [24] = assay: Synergistic antimicrobial activity against methicillin-resistant Staphylococcus aureus CCARM 3089 assessed as fractional inhibitory concentration index in presence of Ceftiofur incubated for 24 hrs by checkerboard assay
Staphylococcus aureus [25] = assay: Synergistic antimicrobial activity against methicillin-resistant Staphylococcus aureus CCARM 3089 assessed as fractional inhibitory concentration index in presence of ciprofloxacin incubated for 24 hrs by checkerboard assay
Staphylococcus aureus [26] = assay: Synergistic antimicrobial activity against Staphylococcus aureus DSM 1104 planktonic cells assessed as fractional inhibitory concentration index in presence of gentamicin by checkerboard assay
Staphylococcus aureus [27] = assay: Synergistic antimicrobial activity against Staphylococcus aureus DSM 1104 planktonic cells assessed as fractional inhibitory concentration index in presence of oxacillin by checkerboard assay
Staphylococcus aureus [28] = assay: Synergistic antimicrobial activity against methicillin resistant Staphylococcus aureus assessed as fractional inhibitory concentration index incubated for 24 hrs in presence of ciprofloxacin by checkerboard assay
Staphylococcus aureus [29] = assay: Synergistic antibacterial activity against […] Staphylococcus aureus ATCC 29213 assessed as fractional inhibitory concentration index incubated for 24 hrs in presence of ciprofloxacin by checkerboard assay
Staphylococcus aureus [30] = assay: Synergistic antibacterial activity against […] Staphylococcus aureus ATCC 29213 assessed as fractional inhibitory concentration index incubated for 24 hrs in presence of pencillin by checkerboard assay
Staphylococcus aureus [31] = assay: Synergistic antibacterial activity against […] Staphylococcus aureus ATCC 29213 assessed as fractional inhibitory concentration index incubated for 24 hrs in presence of amoxicillin by checkerboard assay
Staphylococcus aureus [32] = assay: Synergistic antimicrobial activity against methicillin-resistant Staphylococcus aureus assessed as fractional inhibitory concentration index in presence of teicoplanin by checkerboard assay
Staphylococcus aureus [33] = assay: Synergistic antimicrobial activity against methicillin-resistant Staphylococcus aureus CCARM 3089 assessed as fractional inhibitory concentration index in presence of Chloramphenicol incubated for 24 hrs by checkerboard assay
Staphylococcus aureus [34] = assay: Synergistic antimicrobial activity against methicillin-resistant Staphylococcus aureus CCARM 3089 assessed as fractional inhibitory concentration index in presence of oxacillin incubated for 24 hrs by checkerboard assay
Staphylococcus aureus [35] = assay: Synergistic antimicrobial activity against methicillin resistant Staphylococcus aureus assessed as fractional inhibitory concentration index incubated for 24 hrs in presence of sulbactam by checkerboard assay
Staphylococcus aureus [36] = assay: Synergistic antimicrobial activity against methicillin resistant Staphylococcus aureus assessed as fractional inhibitory concentration index incubated for 24 hrs in presence of oxytetracycline by checkerboard assay
Staphylococcus aureus [37] = assay: Synergistic antibacterial activity against methicillin resistant Staphylococcus aureus assessed as fractional inhibitory concentration index in presence of erythromycin by checkerboard assay

SMILES: O=c1cc(-c2ccc(O)c(O)c2)oc2cc(O)cc(O)c12 [LUTEOLIN]
- fractional inhibitory concentration index (FICI) (Staphylococcus aureus [1]): 0.125
- fractional inhibitory concentration index (FICI) (Staphylococcus aureus [2]): 0.44

SMILES: COc1cc(OC/C=C(\C)CCC=C(C)C)c2ccc(=O)oc2c1
- fractional inhibitory concentration index (FICI) (Staphylococcus aureus [3]): <0.5
- fractional inhibitory concentration index (FICI) (Staphylococcus aureus [4]): <0.5
- fractional inhibitory concentration index (FICI) (Staphylococcus aureus [5]): <0.5
- fractional inhibitory concentration index (FICI) (Staphylococcus aureus [6]): <0.5

SMILES: COc1c2ccoc2c(OC)c2oc(=O)ccc12 [ISOPIMPINELLIN]
- fractional inhibitory concentration index (FICI) (Staphylococcus aureus [7]): <0.5
- fractional inhibitory concentration index (FICI) (Staphylococcus aureus [8]): <0.5
- fractional inhibitory concentration index (FICI) (Staphylococcus aureus [9]): <0.5

SMILES: O=c1cc(-c2ccccc2)c2cc(O)c(O)cc2o1
- fractional inhibitory concentration index (FICI) (Staphylococcus aureus [10]): <0.5
- fractional inhibitory concentration index (FICI) (Staphylococcus aureus [11]): <0.5
- fractional inhibitory concentration index (FICI) (Staphylococcus aureus [12]): <0.5
- fractional inhibitory concentration index (FICI) (Staphylococcus aureus [13]): <0.5
- fractional inhibitory concentration index (FICI) (Staphylococcus aureus [14]): <0.5

SMILES: Oc1cc(O)cc(/C=C/c2ccc(O)c(O)c2)c1 [PICEATANNOL]
- fractional inhibitory concentration index (FICI) (Staphylococcus aureus [15]): 0.375

SMILES: O=C(/C=C/C=C/c1ccc2c(c1)OCO2)N1CCCCC1 [PIPERINE]
- fractional inhibitory concentration index (FICI) (Staphylococcus aureus [16]): 0.5

SMILES: Oc1ccc([C@H]2Oc3cc(O)cc4c3[C@@H]2c2cc(O)cc3c2[C@H](c2cc(O)cc5c2[C@H]4[C@@H](c2ccc(O)cc2)O5)[C@@H](c2ccc(O)cc2)O3)cc1
- fractional inhibitory concentration index (FICI) (Staphylococcus aureus [17]): <0.5
- fractional inhibitory concentration index (FICI) (Staphylococcus aureus [18]): <0.5
- fractional inhibitory concentration index (FICI) (Staphylococcus aureus [19]): <0.5

SMILES: Oc1cc(O)cc(Oc2c(O)cc(O)c3c2Oc2c(O)cc4oc5c(Oc6cc(O)cc(O)c6)c(O)cc(O)c5c4c2O3)c1 [PHLOROFUCOFUROECKOL A]
- fractional inhibitory concentration index (FICI) (Staphylococcus aureus [20]): 0.393

SMILES: COc1c2ccoc2c(OCC=C(C)C)c2oc(=O)ccc12 [PHELLOPTERIN]
- fractional inhibitory concentration index (FICI) (Staphylococcus aureus [21]): 0.5
- fractional inhibitory concentration index (FICI) (Staphylococcus aureus [22]): <0.5

SMILES: O=c1c(O)c(-c2ccc(O)c(O)c2)oc2cc(O)cc(O)c12 [QUERCETIN]
- fractional inhibitory concentration index (FICI) (Staphylococcus aureus [23]): <=0.5

SMILES: O=c1c(O)cc([C@H]2Oc3cc(O)cc(O)c3C[C@H]2O)cc2c([C@H]3Oc4cc(O)cc(O)c4C[C@H]3O)cc(O)c(O)c12 [THEAFLAVIN]
- fractional inhibitory concentration index (FICI) (Staphylococcus aureus [24]): 0.187

SMILES: COc1cc(CNC(=O)CCCC/C=C/C(C)C)ccc1O [CAPSAICIN]
- fractional inhibitory concentration index (FICI) (Staphylococcus aureus [25]): 0.18

SMILES: O=C(/C=C/c1ccc(O)cc1)CC(=O)/C=C/c1ccc(O)cc1 [BISDEMETHOXYCURCUMIN]
- fractional inhibitory concentration index (FICI) (Staphylococcus aureus [26]): 0.1
- fractional inhibitory concentration index (FICI) (Staphylococcus aureus [27]): 0.51

SMILES: COc1cc(/C=C/C(=O)CC(=O)/C=C/c2ccc(O)c(OC)c2)ccc1O [CURCUMIN]
- fractional inhibitory concentration index (FICI) (Staphylococcus aureus [28]): 0.25

SMILES: O=c1cc(-c2ccccc2)oc2cc(O)c(O)c(O)c12 [BAICALEIN]
- fractional inhibitory concentration index (FICI) (Staphylococcus aureus [29]): <0.5
- fractional inhibitory concentration index (FICI) (Staphylococcus aureus [30]): 0.14
- fractional inhibitory concentration index (FICI) (Staphylococcus aureus [31]): 0.14

SMILES: COc1cc(OC)c2ccc(=O)oc2c1OCC=C(C)C [ARTANIN]
- fractional inhibitory concentration index (FICI) (Staphylococcus aureus [32]): <0.5

SMILES: COc1c(C)c(O)c(CC=C(C)C)c(O)c1Cc1c(O)c(C(C)=O)c(O)c(CC=C(C)C)c1OC
- fractional inhibitory concentration index (FICI) (Staphylococcus aureus [33]): 0.393
- fractional inhibitory concentration index (FICI) (Staphylococcus aureus [34]): 0.008

SMILES: O=C(O[C@@H]1Cc2c(O)cc(O)cc2O[C@@H]1c1cc(O)c(O)c(O)c1)c1cc(O)c(O)c(O)c1 [EPIGALOCATECHIN GALLATE]
- fractional inhibitory concentration index (FICI) (Staphylococcus aureus [17]): 0.19
- fractional inhibitory concentration index (FICI) (Staphylococcus aureus [35]): 0.19
- fractional inhibitory concentration index (FICI) (Staphylococcus aureus [36]): 0.288

SMILES: COc1ccc(-c2cc(=O)c3c(O)cc(O)cc3o2)cc1O [DIOSMETIN]
- fractional inhibitory concentration index (FICI) (Staphylococcus aureus [37]): 0.28

Reference: ChEMBL document CHEMBL6153028, “Understanding the synergistic sensitization of natural products and antibiotics: An effective strategy to combat MRSA” (2025)
